We go through 1 compound from patent US20250032580A1, “USE OF ADNF POLYPEPTIDES IN THERAPY” (RAMOT AT TEL-AVIV UNIVERSITY LTD., priority 2021, published 2025).

One test deals with Tyr mice. The test is described as follows: Fecal microbiota real-time PCR loads. The test is classed as in vivo, mouse. Details: key to NAP efficacy: microbiota: corrections by NAP treatment (+). The protocol:
Microbiome—Fecal samples were collected from 12.2±0.19-week-old mice. Samples were prepared and analyzed as previously described (57). Microbiome data was analyzed after applying the logarithmic transformation.
For orientation: Real-time PCR tracks product formation cycle by cycle.

Test [1] has as its system Shank3-Adnp-actin interactions. Put plainly: Actin co-immunoprecipitations from mouse brain extracts. The text has this: De novo heterozygous mutations in ADNP reproduced the autistic ADNP syndrome. ADNP mutations impair microtubule (MT) function, essential for synaptic activity. The ADNP MT-associating fragment NAPVSIPQ (NAP) (SEQ ID NO 2) contains an MT end-binding protein interacting domain, SxIP (mimicking the active-peptide, SKIP, SEQ ID NO 21). The inventors hypothesized that not all ADNP mutations are similarly deleterious and that the NAPV portion of NAPVSIPQ is biologically active. Using the eukaryotic linear motif (ELM) resource, the inventors identified a Src homology 3 (SH3) domain-ligand association site in NAP responsible for controlling signaling pathways regulating the cytoskeleton, namely NAPVSIP (SEQ ID NO: 2). Altogether, the inventors mapped multiple SH3-binding sites in ADNP. […] Site-directed-mutagenesis, abolishing the p.Lys408Valfs*31 SH3-binding motif, produced MT toxicity. […] Lastly, SH3 and multiple ankyrin repeat domains protein 3 (SHANK3), a major autism gene product, interact with the cytoskeleton through an actin-binding motif to modify behavior.

The test system of test [2] is differentiated N1E-115 cells. Put plainly: Live imaging of EB3 comet-like structures (MT dynamics). The test is classed as cell-based, mouse. The protocol:
(§1) Cell culture—Mouse neuroblastoma NIE-115 cells were maintained in Dulbecco's modified Eagle's medium, 10% fetal bovine serum, 2 mM glutamine and 100 U ml—1 penicillin, […] ml—1 streptomycin (Biological Industries, Beit Haemek, Israel). The cells were incubated in 95% air/5% CO2 in a humidified incubator at 37° C.
(§2) Cell differentiation and co-transfection of overexpression plasmids—Cultured NIE-115 cells were plated on 35 mm dishes (81156, 60μ-Dish, Ibidi, Martinsried, Germany) at a concentration of 1.25×10^4 cells per dish and then were differentiated with reduced fetal bovine serum (2%) and DMSO (1.25%) containing medium for 5 days before transfection. 48 hrs before experiments N1E-115 cells were co-transfected with 1 μg EB3-RFP or mCherry-Tau (3R) plasmid with or without 2 μg of plasmids, coding to GFP conjugated to full-length human ADNP, or ADNP carried mutations. 1:3 ratios between total amount of transfected DNA and transfection reagent were used according to manufacture guidance (Lipofectamine2000, Thermo Fisher Scientific, Waltham, MA, USA) in all subsequent experiments.
Live Imaging—48 hrs after transfection, differentiated NIE-115 cells (expressing EB3-RFP with or without GFP-conjugated to full-length ADNP or mutated ADNP) were incubated at 37° C. with a 5% CO2/95% air mixture in a thermostatic chamber placed on the stage of a Leica TCS SP5 confocal microscope (objective 100× (PL Apo) oil immersion, NA 1.4). Time-lapse images were automatically captured 3 sec during 1 min, using the Leica LAS AF software. After imaging all samples were also treated with NAP (SEQ ID NO: 2) or SKIP (SEQ ID NO: 21) in final concentrations of 10^−12 M, and after 4 hrs time-lapse imaging was done again under the same conditions. Data was collected and analyzed by Imaris software.
To evaluate the effect of ADNP truncated proteins on MT dynamics time-lapse imaging of EB3 comet-like structures formed by RFP-tagged EB3 proteins that bind to MT plus-ends was performed. Two parameters of EB3 activity were used to assess MT dynamics—track length and track speed of EB3 comets, which reflect the length of freshly growing MTs and the speed of MT assembly, respectively. Furthermore, the present inventors aimed to determine whether NAP (10^−12 M for 4 hrs) could prevent the deleterious effect of ADNP mutations.

Test [3] deals with differentiated N1E-115 cells. The test is described as follows: FRAP of mCherry-Tau (Tau-MT interaction). It is filed as cell-based, mouse. The protocol:
as §1, §2
Fluorescence recovery after photobleaching (FRAP)—Differentiated NIE-115 cells were transfected with mCherry-Tau with or without GFP-conjugated to full-length ADNP or mutated ADNP, and imaged 48 hrs after transfection. An ROI for photobleaching was drowned in the proximal cell branches. mCherry-Tau was bleached with a […], and fluorescence recovery was collected within wavelengths of 610-650 nm. 80 images were taken every 0.74 sec immediately after bleaching. After FRAP imaging all samples were also treated with NAP in final concentrations of 10^−12 M, and after 4 hrs time-lapse imaging was done again under the same conditions. FRAP imaging for assessment difference between NAP and SKIP (SEQ ID NO: 21) activity was performed after an hour of ZnCl2 treatment (400 μM final concentration; Sigma, Rehovot, Israel) with or without NAP/SKIP (10^−12 M final concentration). Fluorescence signals were quantified with Fiji, obtained data were normalized with easyFRAP [82, 83] and FRAP recovery curves were fitted by a one-phase exponential association function by GraphPad Prism6 (GraphPad Software, Inc., La Jolla, CA, USA) while samples with R^2<0.9 were excluded.
Next, the effect of full-length/truncated ADNP forms with or without NAP treatment on Tau-MT interaction was examined by fluorescence recovery after photobleaching (FRAP) (FIGS. 8A-C). FRAP was performed with mCherry-tagged Tau protein (FIG. 8A). […] Therefore, the immobile mCherry-Tau fraction reflects the rate of Tau association with MTs.

In test [4] the test system is SHANK3 mouse model (InsG3680 mutation). Put plainly: Social recognition test. It is filed as in vivo. The settings on record: NAP-treated SHANK3 mouse model. The protocol:
To this end, mice with the ASD-linked InsG3680 mutation were used. Two behavioral assessments were performed on make mice: • 1) Open field behavior attesting to anxiety and depression (Open field behavioral assessment technology was previously described, e.g.); and • 2) Social recognition behavior, related to autistic traits (the social recognition test was previously described, e.g..
In the social recognition test, the results measured both time exploring and frequency exploring the mouse or cup, either directly or in the chamber where the mouse or cup only are present (FIG. 13).

Setting [5] is: cells expressing ADNP p.Glu830synfs*83, 10^−12 M, 4 hrs.
Where [6] appears, read: cells expressing ADNP p.Lys408Valfs*31 SDM, 10^−12 M, 4 hrs.
Where [7] appears, read: cells expressing ADNP p.Ser404*, 10^−12 M, 4 hrs.

For the compound `CC[C@H](C)[C@H](NC(=O)[C@H](CO)NC(=O)[C@@H](NC(=O)[C@@H]1CCCN1C(=O)[C@H](C)NC(=O)[C@@H](N)CC(N)=O)C(C)C)C(=O)N1CCC[C@H]1C(=O)N[C@@H](CCC(N)=O)C(=O)O` [NAP, NAPVSIPQ], the “NAP efficacy: microbiota” value in the test on Tyr mice (Tyr mouse, first symbol of cell) was “+/+”. In addition, in the test with Tyr mice (WT mice), the “EubV3, BIF, Lacto, Entero loads” value is given as “no effect on WT mice”. For the same compound, the “Clostridium coccoides group (gCcoc) and Mouse intestinal Bacteroides (MIB) loads” value in the test on Tyr mice (WT mice, data not shown) is reported as “other varying effects”. Besides, the “Bifidobacterium genus (BIF) load” value with Tyr mice (female Tyr mice) is on record as “NAP correction”. Further, the “Total eubacterial load (EubV3)” value in the test with Tyr mice (male Tyr mice) is “corrected with NAP treatment”. Further, the Shank3-Adnp-actin interactions result in test [1] is on record as “NAP-mediated normalization”. For the same compound, in test [2] (10^−12 M, 4 hrs), the “Difference between effects of NAP and SKIP on EB3 track length and speed” value is “no significant differences”. For the same compound, the “Speed and track length of EB3 comets” value in test [2] (setting [5]) and in test [2] (setting [7]) was “significantly augmented” in each case. Besides, the EB3 comet speed entry in test [2] (cells expressing ADNP p.Lys408Valfs*31, 10^−12 M, 4 hrs) is “significantly augmented”. Besides, in test [2] (setting [6]), the “EB3 activity (track length and comet speed)” value is reported as “recovered EB3 activity to the control level”. In test [2] (cells overexpressing full-length ADNP, 10^−12 M, 4 hrs), the “EB3 comet track length and speed” value is “did not further influence”. The “EB3 track length and speed compared to non-treated control” value in test [2] (no ADNP plasmid, 10^−12 M, 4 hrs) was “increased EB3 track length and speed”. Moreover, the “MT activities in the face of all ADNP mutations” value in test [2] (summary of results) was “normalized MT activities”. In addition, the “Tau-MT interaction (immobile mCherry-Tau fraction)” value in test [3] (setting [5]) and in test [3] (setting [7]) was “significantly increased” each time. Besides, in test [3] (setting [6]), the “Tau-MT interaction (Tau immobile fraction)” value is given as “prevented by NAP treatment”. For the same compound, the “Tau immobile fraction under zinc” value in test [3] (zinc 400 μM, 1 h, together with peptide 10^−12 M) is “excessive impact”. Besides, the “Social recognition, mouse vs cup exploration” value in test [4] was “normalization of behavior”.
